One experiment concerns the target T1, RIPK1 kinase (Homo sapiens, UniProt Q13546).
T1 construct: purchased Promega VA7593
T1 sequence (Q13546 1-671): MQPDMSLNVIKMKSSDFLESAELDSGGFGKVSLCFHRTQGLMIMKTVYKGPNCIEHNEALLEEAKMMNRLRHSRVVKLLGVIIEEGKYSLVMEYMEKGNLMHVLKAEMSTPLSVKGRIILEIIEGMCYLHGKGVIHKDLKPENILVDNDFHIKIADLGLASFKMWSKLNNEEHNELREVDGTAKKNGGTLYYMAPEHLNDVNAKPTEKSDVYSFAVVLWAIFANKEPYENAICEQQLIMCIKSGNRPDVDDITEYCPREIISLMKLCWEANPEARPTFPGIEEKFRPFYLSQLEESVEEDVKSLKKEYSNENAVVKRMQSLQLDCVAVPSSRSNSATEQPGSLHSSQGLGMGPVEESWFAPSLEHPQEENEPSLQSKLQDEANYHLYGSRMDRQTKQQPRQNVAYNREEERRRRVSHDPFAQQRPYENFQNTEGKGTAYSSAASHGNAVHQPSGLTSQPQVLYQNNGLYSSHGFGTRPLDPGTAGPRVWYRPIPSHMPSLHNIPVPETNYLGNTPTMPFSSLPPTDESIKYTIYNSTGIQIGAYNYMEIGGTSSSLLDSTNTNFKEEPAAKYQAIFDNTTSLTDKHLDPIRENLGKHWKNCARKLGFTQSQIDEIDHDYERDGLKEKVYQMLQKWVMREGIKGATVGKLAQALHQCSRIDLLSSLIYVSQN
As to the kind of experiment: In vitro RIPK1 kinase activity assay (ADP-Glo), inhibition by compounds at 1 μM. Format: biochemical. To be noted: compound 1 μM; ATP 10 μM; MBP substrate 100 μg/mL; read-out: RIPK1 kinase activity inhibition rate range. In a few lines: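 Compound and RIPK1 were preincubated 15 min at room temperature, then reacted 1 h with 10 μM ATP and 100 μg/mL MBP substrate in kinase buffer D. ADP formed was measured by ADP-Glo luminescence and converted to percent inhibition of kinase activity.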
For orientation: ADP-Glo turns the ADP formed in a reaction into a luminescent signal.

For experiment [1], the system named is U937 cells. Description: Inhibition rate of compound (1 μM) on necroptosis of U937 cells (TSZ-induced, CellTiter-Glo). To be noted: TSZ (hTNF-α, SM-164, Z-VAD-FMK) 20 hours. The format is cell-based. In a few lines: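 U937 cells were pretreated 15 min with compound, then necroptosis was triggered with TSZ (Z-VAD-FMK, hTNF-α, SM-164) for 20 h at 37° C. Viability was read as ATP by CellTiter-Glo luminescence, and inhibition (%) was taken relative to no-TSZ and TSZ-only wells.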
A general note: In ATP-based viability assays light output follows the ATP content of the culture.

In experiment [2] the test system is U937 cells. Description: EC50 of necroptosis inhibition in U937 cells (TSZ-induced, CellTiter-Glo). The format is cell-based. To be noted: Homo sapiens, U-937; TSZ (hTNF-α, SM-164, Z-VAD-FMK) 20 hours; 10 concentration points; read-out: EC50 intervals of necroptosis inhibition in U937 cells. Put shortly: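 U937 cells pretreated 15 min with compound (10-point, 1:3 series), then necroptosis induced by TSZ (hTNF-α, SM-164, Z-VAD-FMK) for 20 h at 37 °C. Viability measured as ATP by CellTiter-Glo luminescence; inhibition normalised to untreated and TSZ-only wells, EC50 from four-parameter fit.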

SMILES strings stand for the structures.

In the case of `C[C@@H](NC(=O)C(=O)N[C@H]1COc2ccc(C#CC3CCNCC3)cc2N(C)C1=O)c1ccccc1` [Example 135, N^1-((S)-5-methyl-4-oxo-7-(piperidin-4-ylethynyl)-2,3,4,5-tetrahydrobenzo[b][1,4]oxazepin-3-yl)-N^2-((R)-1-phenylethyl)oxalamide], the inhibition – broadly, the change of the read-out against control, counted positive when it falls – at 1 µM at RIPK1 kinase lay in the range of 25 to 49%. Moreover, the “Inhibition rate range of compounds (1 μM) on U937 cell necroptosis” value (“Inhibition rate range of compounds” below) with U937 cells [1] is “A (A: ≥90%)”. Further, in the experiment on U937 cells [2], the EC50 (commonly the concentration giving half of the maximal effect) was less than 100 nM.

As to `C[C@@H](NC(=O)C(=O)N[C@H]1COc2ccc(C#CC3CCN(C)CC3)cc2N(C)C1=O)c1ccccc1` [Example 136, N^1-((S)-5-methyl-7-((1-methylpiperidin-4-yl)ethynyl)-4-oxo-2,3,4,5-tetrahydrobenzo[b][1,4]oxazepin-3-yl)-N^2-((R)-1-phenylethyl)oxalamide], the inhibition at 1 µM at RIPK1 kinase lay in the range of 25 to 49%. In the experiment with U937 cells [1], the “Inhibition rate range of compounds” value is “A (A: ≥90%)”. In the experiment on U937 cells [2], the EC50 is less than 100 nM.

Consider `C[C@@H](NC(=O)C(=O)N[C@H]1COc2ccc(C#CCN3CCNCC3)cc2N(C)C1=O)c1ccccc1` [Example 142, N^1-((S)-5-methyl-4-oxo-7-(3-(piperazin-1-yl)prop-1-yn-1-yl)-2,3,4,5-tetrahydrobenzo[b][1,4]oxazepin-3-yl)-N^2-((R)-1-phenylethyl)oxalamide], for which the inhibition at 1 µM at RIPK1 kinase is no less than 75%. The “Inhibition rate range of compounds” value with U937 cells [1] is “A (A: ≥90%)”. In addition, in the experiment on U937 cells [2], the EC50 is less than 100 nM.

With `CC(=O)N1CCN(CC#Cc2ccc3c(c2)N(C)C(=O)[C@@H](NC(=O)C(=O)N[C@H](C)c2ccccc2)CO3)CC1` [Example 143, N^1-((S)-7-(3-(4-acetylpiperazin-1-yl)prop-1-yn-1-yl)-5-methyl-4-oxo-2,3,4,5-tetrahydrobenzo[b][1,4]oxazepin-3-yl)-N^2-((R)-1-phenylethyl)oxalamide], the inhibition at 1 µM on RIPK1 kinase was no less than 75%. For the same molecule, in the experiment with U937 cells [1], the “Inhibition rate range of compounds” value is “A (A: ≥90%)”. Further, in the experiment with U937 cells [2], the half-maximal effective concentration (EC50) is less than 100 nM.

As to `C[C@@H](NC(=O)C(=O)N[C@H]1COc2ccc(C#CC3CN(C)C3)cc2N(C)C1=O)c1ccccc1` [Example 147, N^1-((S)-5-methyl-7-((1-methylazetidin-3-yl)ethynyl)-4-oxo-2,3,4,5-tetrahydrobenzo[b][1,4]oxazepin-3-yl)-N^2-((R)-1-phenylethyl)oxalamide], at RIPK1 kinase, the inhibition at 1 µM was no less than 75%. Besides, in the experiment with U937 cells [1], the “Inhibition rate range of compounds” value is “A (A: ≥90%)”. In addition, the EC50 with U937 cells [2] is less than 100 nM.

For `C=CC(=O)N1CC(C#Cc2ccc3c(c2)N(C)C(=O)[C@@H](NC(=O)C(=O)N[C@H](C)c2ccccc2)CO3)C1` [Example 149, N^1-((S)-7-((1-acryloylazetidin-3-yl)ethynyl)-5-methyl-4-oxo-2,3,4,5-tetrahydrobenzo[b][1,4]oxazepin-3-yl)-N^2-((R)-1-phenylethyl)oxalamide], on RIPK1 kinase, the inhibition at 1 µM was no less than 75%. Moreover, in the experiment with U937 cells [1], the “Inhibition rate range of compounds” value is on record as “A (A: ≥90%)”. For the same molecule, in the experiment on U937 cells [2], the EC50 is less than 100 nM.

Consider `C[C@@H](NC(=O)C(=O)N[C@H]1COc2ccc(C#CC3CN(N=O)C3)cc2N(C)C1=O)c1ccccc1` [Example 151, N^1-((S)-5-methyl-7-((1-nitrosoazetidin-3-yl)ethynyl)-4-oxo-2,3,4,5-tetrahydrobenzo[b][1,4]oxazepin-3-yl)-N^2-((R)-1-phenylethyl)oxalamide], for which the inhibition at 1 µM at RIPK1 kinase was 25 to 49%. Further, in the experiment on U937 cells [1], the “Inhibition rate range of compounds” value is on record as “A (A: ≥90%)”. Moreover, the EC50 in the experiment with U937 cells [2] was less than 100 nM.

Consider `C[C@@H](Cc1ccccc1)NC(=O)C(=O)N[C@H]1COc2ccc(C#CCCO)cc2N(C)C1=O` [Example 152, N^1-((S)-7-(4-hydroxybut-1-yn-1-yl)-5-methyl-4-oxo-2,3,4,5-tetrahydrobenzo[b][1,4]oxazepin-3-yl)-N^2-((S)-1-phenylpropan-2-yl)oxalamide], for which the inhibition at 1 µM at RIPK1 kinase lay within 50 to 74%. For the same molecule, in the experiment with U937 cells [1], the “Inhibition rate range of compounds” value is on record as “A (A: ≥90%)”. In addition, the EC50 in the experiment with U937 cells [2] was in the range of 100 to 500 nM.

For `C[C@H](Cc1ccccc1)NC(=O)C(=O)N[C@H]1COc2ccc(C#CCCO)cc2N(C)C1=O` [Example 153, N^1-((S)-7-(4-hydroxybut-1-yn-1-yl)-5-methyl-4-oxo-2,3,4,5-tetrahydrobenzo[b][1,4]oxazepin-3-yl)-N^2-((R)-1-phenylpropan-2-yl)oxalamide], at RIPK1 kinase, the inhibition at 1 µM was in the range of 50 to 74%. In the experiment with U937 cells [1], the “Inhibition rate range of compounds” value is given as “A (A: ≥90%)”. For the same molecule, in the experiment with U937 cells [2], the EC50 lay in the range of 100 to 500 nM.

For the molecule `CN1C(=O)[C@@H](NC(=O)C(=O)NC(C)(C)c2ccccc2)COc2ccc(C#CCN3CCOCC3)cc21` [Example 160, (S)—N^1-(5-methyl-7-(3-morpholinoprop-1-yn-1-yl)-4-oxo-2,3,4,5-tetrahydrobenzo[b][1,4]oxazepin-3-yl)-N^2-(2-phenylpropan-2-yl)oxalamide], on RIPK1 kinase, the inhibition at 1 µM is no less than 75%. The “Inhibition rate range of compounds” value in the experiment with U937 cells [1] was “A (A: ≥90%)”. For the same molecule, in the experiment with U937 cells [2], the EC50 is less than 100 nM.

Take `C[C@@H](NC(=O)C(=O)N[C@H]1COc2ccc(C#CC[N+]3([O-])CCOCC3)cc2N(C)C1=O)c1ccccc1` [Example 161, 4-(3-((S)-5-methyl-4-oxo-3-(2-oxo-2-(((R)-1-phenylethyl)amino)acetamido)-2,3,4,5-tetrahydrobenzo[b][1,4]oxazepin-7-yl)prop-2-yn-1-yl) morpholine 4-oxide]: on RIPK1 kinase, the inhibition at 1 µM lay within 50 to 74%. Also, the “Inhibition rate range of compounds” value in the experiment with U937 cells [1] was “A (A: ≥90%)”. In the experiment on U937 cells [2], the EC50 is less than 100 nM.

Take `Cc1ncsc1-c1ccc(CNC(=O)[C@@H]2C[C@@H](O)CN2C(=O)[C@@H](NC(=O)COCCOCCN2CCN(CC#Cc3ccc4c(c3)N(C)C(=O)[C@@H](NC(=O)C(=O)N[C@H](C)c3ccccc3)CO4)CC2)C(C)(C)C)cc1` [Example 162, N^1-((S)-7-(3-(4-(2-(2-(2-(((S)-1-((2S,4R)-4-hydroxy-2-((4-(4-methylthiazol-5-yl)benzyl)carbamoyl)pyrrolidin-1-yl)-3,3-dimethyl-1-oxobutan-2-yl)amino)-2-oxoethoxy)ethoxy)ethyl)piperazin-1-yl)prop-1-yn-1-yl)-5-methyl-4-oxo-2,3,4,5-tetrahydrobenzo[b][1,4]oxazepin-3-yl)-N^2-((R)-1-phenylethyl)oxalamide]: the inhibition at 1 µM on RIPK1 kinase was no less than 75%. In the experiment with U937 cells [1], the “Inhibition rate range of compounds” value is listed as “A (A: ≥90%)”. Also, the EC50 in the experiment with U937 cells [2] lay within 100 to 500 nM.

Take `Cc1ncsc1-c1ccc(CNC(=O)[C@@H]2C[C@@H](O)CN2C(=O)[C@@H](NC(=O)CCOCCOCCOCCN2CCN(CC#Cc3ccc4c(c3)N(C)C(=O)[C@@H](NC(=O)C(=O)N[C@H](C)c3ccccc3)CO4)CC2)C(C)(C)C)cc1` [Example 163, N^1-((S)-7-(3-(4-((S)-14-((2S,4R)-4-hydroxy-2-((4-(4-methylthiazol-5-yl)benzyl)carbamoyl)pyrrolidine-1-carbonyl)-15,15-dimethyl-12-oxo-3,6,9-trioxa-13-azahexadecyl)piperazin-1-yl)prop-1-yn-1-yl)-5-methyl-4-oxo-2,3,4,5-tetrahydrobenzo[b][1,4]oxazepin-3-yl)-N^2-((R)-1-phenylethyl)oxalamide]: the inhibition at 1 µM on RIPK1 kinase is no less than 75%. Besides, the “Inhibition rate range of compounds” value with U937 cells [1] is given as “A (A: ≥90%)”. Also, the EC50 in the experiment on U937 cells [2] was less than 100 nM.

With `C[C@@H](NC(=O)C(=O)N[C@H]1CN(C)c2ccc(C#CCN3CCOCC3)cc2N(C)C1=O)c1ccccc1` [Example 166, N^1-((S)-1,5-dimethyl-8-(3-morpholinoprop-1-yn-1-yl)-2-oxo-2,3,4,5-tetrahydro-1H-benzo[b][1,4]diazepin-3-yl)-N^2-((R)-1-phenylethyl)oxalamide], the inhibition at 1 µM at RIPK1 kinase was in the range of 25 to 49%. For the same molecule, the “Inhibition rate range of compounds” value in the experiment on U937 cells [1] is recorded as “A (A: ≥90%)”. In the experiment with U937 cells [2], the EC50 was less than 100 nM.

These data come from patent US20250368633A1, “AZEPINE FUSED RING COMPOUND AS RIPK1 INHIBITOR AND USE THEREOF” (ARTIVILA BIOPHARMA, priority 2022, published 2025).
